The results in this text go back to patent US4450269A, “Mono-5-substituted-3-chloro-4H-1,2,6-thiadiazin-4-one antifungal agents” (FMC Corporation, priority 1980, dated 1984).

Structures can show the parent of a compound that is named as a salt.

The experiment has as its system Fusarium solani. Put plainly: Mycelial growth test. The format is cell-based. The note with it: for Percent Fungus Growth Inhibition / inhibition at 5 ppm / inhibition at 10 ppm / inhibition at 20 ppm: PS, 72 hours; for inhibition at 5 ppm / inhibition at 10 ppm / inhibition at 20 ppm / inhibition at 40 ppm: Fusarium solani, 72 h; for inhibition at 5 ppm / inhibition at 10 ppm / inhibition at 20 ppm: read-out: Percent Fungus Growth Inhibition; for inhibition at 40 ppm: read-out: Percent Fungus Growth Inhibition, PS, 40 ppm, 72 hours.

As for “3-chloro-5-(bromophenoxy)-4H-1,2,6-thiadiazin-4-one [Compound 33]”, the “Percent Fungus Growth Inhibition” value was found to be 3% (5 ppm), 33% (10 ppm), 53% (20 ppm) and 93% (40 ppm).
The corresponding values for “3-chloro-5-[methylaminocarbonyloxy)phenoxyl]-4H-1,2,6-thiadiazin-4-one [Compound 36]” are 30%, 45%, 60% and 90%.
The term inhibition denotes the drop in the measured response relative to a control, in per cent. With `O=c1c(Cl)nsnc1Oc1ccccc1` [Compound 2, 3-chloro-5-phenoxy-4H--1,2,6-thiadiazin-4-one], the inhibition at 40 ppm was 100%. Moreover, the inhibition at 5 ppm (5 ppm) was found to be 53%. Further, for the setting “10 ppm”, the inhibition at 10 ppm is 65%. The inhibition at 20 ppm (20 ppm) stood at 76%.
The corresponding values for `Cc1ccc(Oc2nsnc(Cl)c2=O)cc1` [Compound 3, 3-chloro-5-(4-methylphenoxy)-4H--1,2,6-thiadiazin-4-one] are 65%, 35%, 53% and 65%.
Turning to `CC(C)(C)c1ccc(Oc2nsnc(Cl)c2=O)cc1` [Compound 4, 3-chloro-5-(4-tert-butylphnoxy)-4H--1,2,6-thiadiazin-4-one], the inhibition at 40 ppm is 8%. For the same molecule, the inhibition at 5 ppm (5 ppm) was 0%. In addition, for the setting “10 ppm”, the inhibition at 10 ppm amounted to 0%. Further, the inhibition at 20 ppm (20 ppm) was determined as 0%.
On to `COc1ccc(Oc2nsnc(Cl)c2=O)cc1` [Compound 5, 3-chloro-5-(4-methoxyphenoxy)4H--1,2,6-thiadiazin-4-one], for which the inhibition at 40 ppm stood at 71%. For the setting “5 ppm”, the inhibition at 5 ppm turned out to be 18%. Also, the inhibition at 10 ppm (10 ppm) was 35%. Also, the inhibition at 20 ppm (20 ppm) was determined as 6%.
In the case of `CCCCOc1ccc(Oc2nsnc(Cl)c2=O)cc1` [Compound 6, 3-chloro-5-(4-n-butoxyphenoxy)-4H--1,2,6-thiadiazin-4-one], the inhibition at 40 ppm is 13%. For the same molecule, the inhibition at 5 ppm (5 ppm) worked out at 0%. For the same molecule, where the note is “10 ppm”, the inhibition at 10 ppm worked out at 0%. Also, the inhibition at 20 ppm (20 ppm) came to 0%.
In the case of `CCOC(=O)c1ccc(Oc2nsnc(Cl)c2=O)cc1` [Compound 7, 3-chloro-5-(4-ethoxycarbonylphenoxy)-4H--1,2,6-thiadiazin-4-one], the inhibition at 40 ppm came out at 88%. Also, the inhibition at 5 ppm (5 ppm) turned out to be 42%. Besides, under “10 ppm”, the inhibition at 10 ppm is 54%. Besides, the inhibition at 20 ppm (20 ppm) is 69%.
The corresponding values for `CC(=O)Nc1ccc(Oc2nsnc(Cl)c2=O)cc1` [Compound 8, 5-(4-acetylaminophenoxy)-3-chloro-4H--1,2,6-thiadiazin-4-one] are 31%, 3%, 41% and 31%.
With `O=c1c(Cl)nsnc1Oc1ccc([N+](=O)[O-])cc1` [Compound 9, 3-chloro-5-(4-nitrophenoxy)-4H--1,2,6-thiadiazin-4-one], the inhibition at 40 ppm is 100%. For the same molecule, the inhibition at 5 ppm (5 ppm) came to 65%. For the same molecule, the inhibition at 10 ppm (10 ppm) amounted to 76%. Further, the inhibition at 20 ppm (20 ppm) was determined as 53%.
For `N#Cc1ccc(Oc2nsnc(Cl)c2=O)cc1` [Compound 10, 3-chloro-5-(4-cyanophenoxy)-4H--1,2,6-thiadiazin-4-one], the inhibition at 40 ppm came to 75%. Besides, the inhibition at 5 ppm (5 ppm) came out at 17%. Further, under “10 ppm”, the inhibition at 10 ppm came to 33%. In addition, under “20 ppm”, the inhibition at 20 ppm was 50%.
The corresponding values for `O=c1c(Cl)nsnc1Oc1ccc(F)cc1` [Compound 11, 3-chloro-5-(4-fluorophenoxy)-4H--1,2,6-thiadiazin-4-one] are 75%, 17%, 33% and 83%.
`O=c1c(Cl)nsnc1Oc1ccc(Cl)cc1` [Compound 12, 3-chloro-5-(4-chlorophenoxy)-4H--1,2,6-thiadiazin-4-one]: the inhibition at 40 ppm was determined as 100%. The inhibition at 5 ppm (5 ppm) turned out to be 71%. The inhibition at 10 ppm (10 ppm) is 59%. In addition, where the note is “20 ppm”, the inhibition at 20 ppm is 65%.
In the same order, the values of `O=c1c(Cl)nsnc1Oc1cccc(Cl)c1` [Compound 13, 3-chloro-5-(3-chlorophenoxy)-4H--1,2,6-thiadiazin-4-one] are 100%, 38%, 50% and 72%.
`O=c1c(Cl)nsnc1Oc1ccccc1Cl` [Compound 14, 3-chloro-5-(2-chlorophenoxy)-4H--1,2,6-thiadiazin-4-one]: the inhibition at 40 ppm turned out to be 100%. Besides, the inhibition at 5 ppm (5 ppm) came out at 44%. The inhibition at 10 ppm (10 ppm) stood at 100%. The inhibition at 20 ppm (20 ppm) is 100%.
Regarding `O=c1c(Cl)nsnc1Oc1ccc(Br)cc1` [Compound 15, 3-chloro-5-(4-bromophenoxy)-4H--1,2,6-thiadiazin-4-one], the inhibition at 40 ppm stood at 83%. Also, the inhibition at 5 ppm (5 ppm) is 0%. Further, under “10 ppm”, the inhibition at 10 ppm amounted to 42%. For the same molecule, the inhibition at 20 ppm (20 ppm) was found to be 42%.
Regarding `O=c1c(Cl)nsnc1Oc1ccc(Cl)c(Cl)c1` [Compound 16, 3-chloro-5-(3,4-dichlorophenoxy)-4H--1,2,6-thiadiazin-4-one], the inhibition at 40 ppm came to 41%. Also, the inhibition at 5 ppm (5 ppm) stood at 53%. In addition, under “10 ppm”, the inhibition at 10 ppm worked out at 47%. Also, the inhibition at 20 ppm (20 ppm) came to 47%.
As to `O=c1c(Cl)nsnc1Oc1ccc(Cl)cc1Cl` [Compound 17, 3-chloro-5-(2,4-dichlorophenoxy)-4H--1,2,6-thiadiazin-4-one], the inhibition at 40 ppm came out at 100%. For the same molecule, where the note is “5 ppm”, the inhibition at 5 ppm is 50%. For the setting “10 ppm”, the inhibition at 10 ppm was 75%. The inhibition at 20 ppm (20 ppm) was found to be 100%.
In the case of `O=c1c(Cl)nsnc1Oc1c(Cl)cccc1Cl` [Compound 18, 3-chloro-5-(2,6-dichlorophenoxy)-4H--1,2,6-thiadiazin-4-one], the inhibition at 40 ppm was 75%. Besides, the inhibition at 5 ppm (5 ppm) stood at 41%. Moreover, the inhibition at 10 ppm (10 ppm) amounted to 50%. For the same molecule, under “20 ppm”, the inhibition at 20 ppm was 75%.
Take `O=c1c(Cl)nsnc1Oc1cccc(Cl)c1Cl` [Compound 19, 3-chloro-5-(2,3-dichlorophenoxy)-4H--1,2,6-thiadiazin-4-one]: the inhibition at 40 ppm turned out to be 100%. Under “5 ppm”, the inhibition at 5 ppm was determined as 50%. Besides, the inhibition at 10 ppm (10 ppm) is 66%. Besides, under “20 ppm”, the inhibition at 20 ppm worked out at 81%.
`O=c1c(Cl)nsnc1Oc1cc(Cl)cc(Cl)c1` [Compound 20, 3-chloro-5-(3,5-dichlorophenoxy)-4H--1,2,6-thiadiazin-4-one]: the inhibition at 40 ppm was 69%. The inhibition at 5 ppm (5 ppm) is 59%. In addition, for the setting “10 ppm”, the inhibition at 10 ppm is 66%. Also, for the setting “20 ppm”, the inhibition at 20 ppm was 100%.
In the same order, the values of `Cc1cccc(Oc2nsnc(Cl)c2=O)c1` [Compound 21, 3-chloro-5-(3-methylphenoxy)-4H--1,2,6-thiadiazin-4-one] are 100%, 33%, 62% and 58%.
In the same order, the values of `Cc1ccccc1Oc1nsnc(Cl)c1=O` [Compound 22, 3-chloro-5-(2-methylphenoxy)-4H--1,2,6-thiadiazin-4-one] are 100%, 17%, 67% and 83%.
In the case of `Cc1ccc(Oc2nsnc(Cl)c2=O)c(C)c1` [Compound 23, 3-chloro-5-(2,4-dimethylphenoxy)-4H--1,2,6-thiadiazin-4-one], the inhibition at 40 ppm turned out to be 100%. For the same molecule, the inhibition at 5 ppm (5 ppm) was 17%. Moreover, the inhibition at 10 ppm (10 ppm) is 33%. Further, where the note is “20 ppm”, the inhibition at 20 ppm came to 100%.
On to `Cc1cccc(C)c1Oc1nsnc(Cl)c1=O` [Compound 24, 3-chloro-5-(2,6-dimethylphenoxy)-4H--1,2,6-thiadiazin-4-one], for which the inhibition at 40 ppm is 100%. Moreover, for the setting “5 ppm”, the inhibition at 5 ppm amounted to 33%. For the setting “10 ppm”, the inhibition at 10 ppm is 83%. In addition, the inhibition at 20 ppm (20 ppm) is 100%.
Regarding `Cc1cc(C)cc(Oc2nsnc(Cl)c2=O)c1` [Compound 25, 3-chloro-5-(3,5-dimethylphenoxy)-4H--1,2,6-thiadiazin-4-one], the inhibition at 40 ppm was 100%. For the setting “5 ppm”, the inhibition at 5 ppm is 50%. Besides, the inhibition at 10 ppm (10 ppm) was 100%. Further, the inhibition at 20 ppm (20 ppm) was 100%.
Regarding `Nc1ccc(Oc2nsnc(Cl)c2=O)cc1` [Compound 26, 5-(4-aminophenoxy)-3-chloro-4H--1,2,6-thiadiazin-4-one], the inhibition at 40 ppm was 42%. For the same molecule, the inhibition at 5 ppm (5 ppm) was found to be 13%. Further, for the setting “20 ppm”, the inhibition at 20 ppm is 17%. Where the note is “10 ppm”, the “Percent Fungus Growth Inhibition” value amounted to 33%.
For the molecule `Nc1ccc(Oc2nsnc(Cl)c2=O)cc1` [Compound 27, 5-(4-aminophenoxy)-3-chloro-4H--1,2,6-thiadiazine-4-one hydrochloride], the “Percent Fungus Growth Inhibition” value runs as follows: (10 ppm, hydrochloride) 8%; (20 ppm, hydrochloride) 13%.
With `CNC(=O)Nc1ccc(Oc2nsnc(Cl)c2=O)cc1` [Compound 28, 3-chloro-5-[4-(3-methylureido)-phenoxy]-4H--1,2,6-thiadiazin-4-one], the inhibition at 40 ppm is 13%. The inhibition at 5 ppm (5 ppm) was found to be 0%. The inhibition at 10 ppm (10 ppm) turned out to be 17%. For the same molecule, the inhibition at 20 ppm (20 ppm) amounted to 17%.
For `O=C(Nc1ccccc1)Nc1ccc(Oc2nsnc(Cl)c2=O)cc1` [Compound 29, 3-chloro-5-[4-(3-phenylureido)-phenoxy]-4H--1,2,6-thiadiazin-4-one], the inhibition at 40 ppm worked out at 13%. Besides, the inhibition at 5 ppm (5 ppm) worked out at 0%. Also, the inhibition at 10 ppm (10 ppm) was found to be 0%. Moreover, the inhibition at 20 ppm (20 ppm) is 0%.
Take `O=c1c(Cl)nsnc1Oc1c(Cl)cc(Cl)cc1Cl` [Compound 30, 3-chloro-5-(2,4,6-trichlorophenoxy)-4H--1,2,6-thiadiazin-4-one]: the inhibition at 40 ppm was 100%. Also, for the setting “5 ppm”, the inhibition at 5 ppm worked out at 52%. Besides, the inhibition at 10 ppm (10 ppm) came to 81%. The inhibition at 20 ppm (20 ppm) was found to be 90%.
With `O=c1c(Cl)nsnc1Oc1c(Cl)c(Cl)c(Cl)c(Cl)c1Cl` [Compound 31, 3-chloro-5-(pentachlorophenoxy)-4H--1,2,6-thiadiazine-4-one], the inhibition at 40 ppm worked out at 58%. Where the note is “5 ppm”, the inhibition at 5 ppm stood at 42%. Besides, the inhibition at 10 ppm (10 ppm) stood at 42%. Further, the inhibition at 20 ppm (20 ppm) worked out at 58%.
Take `O=c1c(Cl)nsnc1Oc1cccc2ccccc12` [Compound 32, 3-chloro-5(1-naphthoxy)-4H-1,2,6-thiadiazin-4-one]: the inhibition at 40 ppm worked out at 100%. In addition, the inhibition at 5 ppm (5 ppm) was 100%. Moreover, the inhibition at 10 ppm (10 ppm) turned out to be 100%. Further, under “20 ppm”, the inhibition at 20 ppm is 100%.
